Measured values as given in ChEMBL document CHEMBL1150948, “Tolyporphins J and K, two further porphinoid metabolites from the cyanobacterium Tolypothrix nodosa” (J Nat Prod, 1998).
Calls of active or inactive are those of the source. The rule behind the calls is not given here.

Assays:
[1] = target: ATP-dependent translocase ABCB1 (Homo sapiens, UniProt P08183); test: Inhibition of P-glycoprotein in human MCF7/ADR cells assessed as increase in [3H]vinblastine accumulation; format: cell-based; conditions: nci/adr-res
[2] = test system: NCI/ADR-RES; test: Reversal of P-glycoprotein-mediated multidrug resistance in human MCF7/ADR cells assessed as sensitization to actinomycin D after 48 hrs by SRB assay; format: cell-based
[3] = test system: NCI/ADR-RES; test: Cytotoxicity against human MCF7/ADR cells for 60 mins by trypan blue staining; format: functional, cell-based

Chain of ATP-dependent translocase ABCB1 (P08183 whole entry): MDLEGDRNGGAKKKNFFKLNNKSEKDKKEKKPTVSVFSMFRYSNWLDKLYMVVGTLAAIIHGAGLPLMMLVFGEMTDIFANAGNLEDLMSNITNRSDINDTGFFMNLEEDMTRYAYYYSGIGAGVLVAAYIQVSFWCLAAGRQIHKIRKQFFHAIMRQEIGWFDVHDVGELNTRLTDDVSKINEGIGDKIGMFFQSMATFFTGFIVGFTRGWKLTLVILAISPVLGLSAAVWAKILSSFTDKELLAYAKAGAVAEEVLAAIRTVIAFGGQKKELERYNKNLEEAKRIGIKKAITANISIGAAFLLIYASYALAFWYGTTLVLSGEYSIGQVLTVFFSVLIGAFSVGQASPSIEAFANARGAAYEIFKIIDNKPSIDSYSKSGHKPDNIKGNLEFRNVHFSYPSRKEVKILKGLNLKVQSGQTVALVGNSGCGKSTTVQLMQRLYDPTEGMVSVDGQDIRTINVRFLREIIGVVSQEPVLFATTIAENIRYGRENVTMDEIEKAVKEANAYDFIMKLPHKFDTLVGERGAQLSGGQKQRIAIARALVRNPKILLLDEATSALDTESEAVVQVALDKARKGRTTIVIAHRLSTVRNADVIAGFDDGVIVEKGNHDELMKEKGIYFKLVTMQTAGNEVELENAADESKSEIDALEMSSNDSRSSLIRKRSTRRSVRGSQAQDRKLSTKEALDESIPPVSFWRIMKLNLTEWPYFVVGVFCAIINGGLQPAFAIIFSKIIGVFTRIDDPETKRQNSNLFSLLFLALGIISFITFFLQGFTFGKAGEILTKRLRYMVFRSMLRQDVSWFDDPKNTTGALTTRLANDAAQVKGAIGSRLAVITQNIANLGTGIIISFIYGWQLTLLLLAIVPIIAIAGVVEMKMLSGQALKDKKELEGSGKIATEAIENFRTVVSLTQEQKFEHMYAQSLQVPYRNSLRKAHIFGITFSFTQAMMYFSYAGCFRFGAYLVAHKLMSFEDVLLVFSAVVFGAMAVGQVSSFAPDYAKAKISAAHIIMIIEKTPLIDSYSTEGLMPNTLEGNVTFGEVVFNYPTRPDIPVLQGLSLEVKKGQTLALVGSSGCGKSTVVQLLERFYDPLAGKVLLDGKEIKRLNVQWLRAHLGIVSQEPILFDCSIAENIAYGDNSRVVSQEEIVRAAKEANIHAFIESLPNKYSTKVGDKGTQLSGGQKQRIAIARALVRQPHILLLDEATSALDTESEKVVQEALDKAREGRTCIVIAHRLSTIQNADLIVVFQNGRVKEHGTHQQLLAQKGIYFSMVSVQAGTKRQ

Activity [1] | SMILES | Activity [2] | Activity [3]
Dose-dependent effect | CC(=O)O[C@@H]1C[C@@H](O)[C@@H](C)OC1[C@]1(C)C(=O)c2cc3cc(C)c(cc4nc(cc5[nH]c(cc1n2)cc5C)C(=O)[C@@]4(C)C1O[C@H](C)[C@H](O)C[C@H]1OC(C)=O)[nH]3 (stereo partly specified) [TOLYPORPHIN A] | Active | inactive
Dose-dependent effect | Cc1cc2cc3nc(cc4cc(C)c(cc5nc(cc1[nH]2)C(=O)C5(C)O)[nH]4)C(=O)C3(C)O (stereo unspecified) [TOLYPORPHIN J] | Active | inactive
